Source: patent US8614327B2 (Vertex Pharmaceuticals Incorporated, priority 2004, dated 2013)
pEC50: −log10 of the molar value.

Biological target: T1, ΔF508-CFTR (Homo sapiens, UniProt P13569, DEL508-508)
T1 construct: expressed in transfected cells
Experiment: Membrane potential optical (FRET/VIPR) assay, identification of potentiator compounds
Type: cell-based
Conditions: Table 3, assay not given; for % Activity: relative efficacy
In short: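 NIH3T3 mouse fibroblasts stably expressing ΔF508-CFTR, temperature-corrected 24 h at 27° C., read on VIPR by FRET between CC2-DMPE and DiSBAC2(3). Potentiators identified in a double-addition format, first adding chloride-free (gluconate) medium with or without compound.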

T1 sequence (P13569 with tags, fused parts or gaps DEL508-508): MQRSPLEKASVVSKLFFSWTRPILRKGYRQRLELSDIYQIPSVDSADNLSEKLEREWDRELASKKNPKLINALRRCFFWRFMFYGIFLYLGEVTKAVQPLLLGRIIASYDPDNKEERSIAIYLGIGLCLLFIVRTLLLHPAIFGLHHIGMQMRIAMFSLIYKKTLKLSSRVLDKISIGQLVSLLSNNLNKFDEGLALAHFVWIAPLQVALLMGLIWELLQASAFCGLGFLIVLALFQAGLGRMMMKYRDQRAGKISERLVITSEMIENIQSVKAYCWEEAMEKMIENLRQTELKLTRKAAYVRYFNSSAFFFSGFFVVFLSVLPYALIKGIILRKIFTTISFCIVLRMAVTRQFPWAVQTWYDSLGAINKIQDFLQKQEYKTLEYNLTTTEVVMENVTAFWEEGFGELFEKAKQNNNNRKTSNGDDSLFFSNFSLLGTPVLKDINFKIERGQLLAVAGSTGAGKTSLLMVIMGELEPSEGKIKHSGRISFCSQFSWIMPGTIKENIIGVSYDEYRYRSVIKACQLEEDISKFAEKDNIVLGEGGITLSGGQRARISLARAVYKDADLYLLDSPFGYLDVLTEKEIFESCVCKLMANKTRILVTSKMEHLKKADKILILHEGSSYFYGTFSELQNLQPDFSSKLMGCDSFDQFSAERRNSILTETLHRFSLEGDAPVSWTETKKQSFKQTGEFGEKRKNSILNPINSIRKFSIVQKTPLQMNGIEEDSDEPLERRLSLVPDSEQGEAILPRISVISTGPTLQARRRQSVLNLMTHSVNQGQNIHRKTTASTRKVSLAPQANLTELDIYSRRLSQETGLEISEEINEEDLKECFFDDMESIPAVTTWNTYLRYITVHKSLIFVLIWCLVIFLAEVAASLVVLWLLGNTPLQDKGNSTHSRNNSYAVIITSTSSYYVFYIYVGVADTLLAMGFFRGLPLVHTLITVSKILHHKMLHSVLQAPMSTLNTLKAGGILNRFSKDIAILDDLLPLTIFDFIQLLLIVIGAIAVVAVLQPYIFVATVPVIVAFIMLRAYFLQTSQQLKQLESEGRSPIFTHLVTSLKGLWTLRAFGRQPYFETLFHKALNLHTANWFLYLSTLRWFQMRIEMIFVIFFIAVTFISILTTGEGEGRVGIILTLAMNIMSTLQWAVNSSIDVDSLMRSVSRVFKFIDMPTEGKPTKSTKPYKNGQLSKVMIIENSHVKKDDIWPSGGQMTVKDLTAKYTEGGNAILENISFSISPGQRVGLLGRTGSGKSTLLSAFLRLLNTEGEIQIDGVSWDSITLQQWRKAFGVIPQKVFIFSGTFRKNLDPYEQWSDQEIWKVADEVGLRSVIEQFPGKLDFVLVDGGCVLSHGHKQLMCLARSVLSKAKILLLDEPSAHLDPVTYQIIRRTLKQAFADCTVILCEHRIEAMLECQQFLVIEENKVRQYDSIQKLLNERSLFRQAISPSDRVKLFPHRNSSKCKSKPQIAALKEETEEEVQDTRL

| SMILES | pEC50 | % Activity |
| --- | --- | --- |
| O=C(Nc1ccc2nccnc2c1)c1c[nH]c2ccccc2c1=O [Compound 443, 4-oxo-N-quinoxalin-6-yl-1H-quinoline-3-carboxamide] | 4.22 to 4.60 | + (<25%) |
| O=C(Nc1ccc(N2CCOCC2)cc1)c1c[nH]c2ccccc2c1=O [Compound 457, N-(4-morpholinophenyl)-4-oxo-1H-quinoline-3-carboxamide] | 4.22 to 4.60 | + (<25%) |
| CN(C)CCNC(=O)c1ccc(-c2cc3cc[nH]c3cc2NC(=O)c2c[nH]c3ccccc3c2=O)cc1 [Compound 347, N-[5-[4-(2-dimethylaminoethylcarbamoyl)phenyl]-1H-indol-6-yl]-4-oxo-1H-quinoline-3-carboxamide] | 4.60 to 5.00 | ++ (between 25% to 100%) |
| Cc1ccc(C#N)c(NC(=O)c2c[nH]c3ccccc3c2=O)c1 [Compound 89, N-(2-cyano-5-methyl-phenyl)-4-oxo-1H-quinoline-3-carboxamide] | 4.22 to 4.60 | + (<25%) |
| COc1ccc(NC(C)=O)cc1NC(=O)c1c[nH]c2ccccc2c1=O [Compound 250, N-(5-acetylamino-2-methoxy-phenyl)-4-oxo-1H-quinoline-3-carboxamide] | 4.22 to 4.60 | + (<25%) |
| Cc1cccnc1NC(=O)c1c[nH]c2ccccc2c1=O [Compound 192, N-(3-methyl-2-pyridyl)-4-oxo-1H-quinoline-3-carboxamide] | 4.22 to 4.60 | + (<25%) |
| O=C(Nc1ccc2cn[nH]c2c1)c1c[nH]c2ccccc2c1=O [Compound 284, N-(1H-indazol-6-yl)-4-oxo-1H-quinoline-3-carboxamide] | 4.60 to 5.00 | ++ (between 25% to 100%) |
| CC(C)(C)c1ccccc1Oc1ccccc1NC(=O)c1c[nH]c2ccccc2c1=O [Compound 178, 4-oxo-N-[2-(2-tert-butylphenoxy)phenyl]-1H-quinoline-3-carboxamide] | > 5.00 | ++ (between 25% to 100%) |
| COC(=O)[C@@H]1[C@@H](C)CCN1c1ccc(NC(=O)c2c[nH]c3ccccc3c2=O)c(C(F)(F)F)c1 [Compound 530, (2S,3S)-methyl 3-methyl-1-(4-(4-oxo-1,4-dihydroquinoline-3-carboxamido)-3-(trifluoromethyl)phenyl)pyrrolidine-2-carboxylate] | > 5.00 | ++ (between 25% to 100%) |
| CC(C)CNC(=O)c1cc2cc[nH]c2cc1NC(=O)c1c[nH]c2ccccc2c1=O [Compound 343, N-[5-(Isobutylcarbamoyl)-1H-indol-6-yl]-4-oxo-1H-quinoline-3-carboxamide] | 4.60 to 5.00 | ++ (between 25% to 100%) |
| CCOc1ccccc1NC(=O)c1c[nH]c2ccccc2c1=O [Compound 380, N-(2-ethoxyphenyl)-4-oxo-1H-quinoline-3-carboxamide] | > 5.00 | ++ (between 25% to 100%) |
| CCc1ccc2ncc(C(=O)Nc3ccc4cc[nH]c4c3)c(O)c2c1 [Compound 67, 6-ethyl-4-hydroxy-N-(1H-indol-6-yl)quinoline-3-carboxamide] | > 5.00 | ++ (between 25% to 100%) |
| COc1c(C(=O)Nc2ccc(C(C)(C)C)c(O)c2)cnc2ccccc12 [Compound 415, N-(3-Hydroxy-4-tert-butyl-phenyl)-4-methoxy-quinoline-3-carboxamide] | > 5.00 | ++ (between 25% to 100%) |
| O=C(Nc1cccn2ncnc12)c1c[nH]c2ccccc2c1=O [Compound 146, 4-oxo-N-(1,7,9-triazabicyclo[4.3.0]nona-2,4,6,8-tetraen-5-yl)-1H-quinoline-3-carboxamide] | 4.22 to 4.60 | + (<25%) |
| Cc1cccc2c(=O)c(C(=O)Nc3cc(O)c(C(C)(C)C)cc3F)c[nH]c12 [Compound 625, N-(2-fluoro-5-hydroxy-4-tert-butyl-phenyl)-8-methyl-4-oxo-1H-quinoline-3-carboxamide] | > 5.00 | + (<25%) |
| O=C(Nc1ccc(OC(F)(F)F)cc1Cl)c1c[nH]c2ccccc2c1=O [Compound 628, N-[2-chloro-4-(trifluoromethoxy)phenyl]-4-oxo-1H-quinoline-3-carboxamide] | > 5.00 | ++ (between 25% to 100%) |
| O=C(Nc1cc2[nH]ccc2cc1F)c1c[nH]c2ccc(F)cc2c1=O [Compound 254, 6-fluoro-N-(5-fluoro-1H-indol-6-yl)-4-oxo-1H-quinoline-3-carboxamide] | > 5.00 | ++ (between 25% to 100%) |
| O=C(Nc1ccccc1OCc1ccccc1)c1c[nH]c2ccccc2c1=O [Compound 240, N-(2-benzyloxyphenyl)-4-oxo-1H-quinoline-3-carboxamide] | > 5.00 | ++ (between 25% to 100%) |
| O=C(Nc1cc(NS(=O)(=O)CCN2CCCCC2)cc(C(F)(F)F)c1)c1c[nH]c2ccccc2c1=O [Compound 318, 4-Oxo-N-[3-[2-(1-piperidyl)ethylsulfonylamino]-5-(trifluoromethyl)phenyl]-1H-quinoline-3-carboxamide] | 4.60 to 5.00 | ++ (between 25% to 100%) |
| CCc1ccc(NC(=O)c2c[nH]c3ccccc3c2=O)cc1NC(=O)OC [Compound 129, [2-ethyl-5-[(4-oxo-1H-quinolin-3-yl)carbonylamino]phenyl]aminoformic acid methyl ester] | 4.60 to 5.00 | ++ (between 25% to 100%) |
| O=C(Nc1ccccc1-c1ccc(F)cc1)c1c[nH]c2ccccc2c1=O [Compound 182, N-[2-(4-fluorophenyl)phenyl]-4-oxo-1H-quinoline-3-carboxamide] | > 5.00 | ++ (between 25% to 100%) |
| CC(=O)c1ccc2c(=O)c(C(=O)Nc3cc(O)c(C(C)(C)C)cc3C(C)(C)C)c[nH]c2c1 [Compound 604, 7-acetyl-N-(5-hydroxy-2,4-ditert-butyl-phenyl)-4-oxo-1H-quinoline-3-carboxamide] | > 5.00 | ++ (between 25% to 100%) |
| CC(C)(C)c1cc(F)c(NC(=O)c2c[nH]c3ccc(Cl)cc3c2=O)cc1O [Compound 561, 6-chloro-N-(2-fluoro-5-hydroxy-4-tert-butyl-phenyl)-4-oxo-1H-quinoline-3-carboxamide] | > 5.00 | ++ (between 25% to 100%) |
| Cc1csc(-c2ccccc2NC(=O)c2c[nH]c3ccccc3c2=O)c1 [Compound 151, N-[2-(4-methyl-2-thienyl)phenyl]-4-oxo-1H-quinoline-3-carboxamide] | > 5.00 | ++ (between 25% to 100%) |

Second part, the compound after the results:

| pEC50 | % Activity | SMILES |
| --- | --- | --- |
| > 5.00 | ++ (between 25% to 100%) | O=C(Nc1ccc(C(F)(F)F)cc1)c1c[nH]c2ccccc2c1=O [Compound 236, 4-oxo-N-[4-(trifluoromethyl)phenyl]-1H-quinoline-3-carboxamide] |
| > 5.00 | ++ (between 25% to 100%) | O=C(Nc1ccc(C2CCCCC2)c(O)c1)c1c[nH]c2ccc(F)cc2c1=O [Compound 651, N-(4-cyclohexyl-3-hydroxy-phenyl)-6-fluoro-4-oxo-1H-quinoline-3-carboxamide] |
| > 5.00 | ++ (between 25% to 100%) | CCc1ccccc1NC(=O)c1c[nH]c2ccccc2c1=O [Compound 72, N-(2-ethylphenyl)-4-oxo-1H-quinoline-3-carboxamide] |
| > 5.00 | ++ (between 25% to 100%) | COc1ccc(Oc2ccc(C(F)(F)F)cc2NC(=O)c2c[nH]c3ccccc3c2=O)cc1 [Compound 205, N-[2-(4-methoxyphenoxy)-5-(trifluoromethyl)phenyl]-4-oxo-1H-quinoline-3-carboxamide] |
| > 5.00 | ++ (between 25% to 100%) | CNc1ccc(C(C)C)c(NC(=O)c2c[nH]c3ccccc3c2=O)c1 [Compound 399, N-(2-isopropyl-5-methylamino-phenyl)-4-oxo-1H-quinoline-3-carboxamide] |
| > 5.00 | ++ (between 25% to 100%) | CC(C)(C)c1cc2ccc(NC(=O)c3c[nH]c4ccccc4c3=O)cc2[nH]1 [Compound 320, 4-oxo-N-(2-tert-butyl-1H-indol-6-yl)-1H-quinoline-3-carboxamide] |
| > 5.00 | ++ (between 25% to 100%) | O=C(Nc1ccc(C(F)(F)F)c(O)c1)c1c[nH]c2ccc(F)cc2c1=O [Compound 650, 6-fluoro-N-[3-hydroxy-4-(trifluoromethyl)phenyl]-4-oxo-1H-quinoline-3-carboxamide] |
| > 5.00 | ++ (between 25% to 100%) | CC1(C)CCCN(c2ccc(NC(=O)c3c[nH]c4ccccc4c3=O)c(C(F)(F)F)c2)C1 [Compound 612, N-[4-(3,3-dimethyl-1-piperidyl)-2-(trifluoromethyl)phenyl]-4-oxo-1H-quinoline-3-carboxamide] |
| > 5.00 | + (<25%) | Cc1cccc2c(=O)c(C(=O)Nc3cc4[nH]ccc4cc3C(C)(C)C)c[nH]c12 [Compound 644, 8-methyl-4-oxo-N-(5-tert-butyl-1H-indol-6-yl)-1H-quinoline-3-carboxamide] |
| > 5.00 | ++ (between 25% to 100%) | Cc1cccc2[nH]cc(C(=O)Nc3cc4[nH]ccc4cc3C(C)(C)C)c(=O)c12 [Compound 565, 5-methyl-4-oxo-N-(5-tert-butyl-1H-indol-6-yl)-1H-quinoline-3-carboxamide] |
| > 5.00 | ++ (between 25% to 100%) | CN(C)[C@@H]1CCN(c2ccc(NC(=O)c3c[nH]c4ccccc4c3=O)c(C(F)(F)F)c2)C1 [Compound 534, (R)-N-(4-(3-(dimethylamino)pyrrolidin-1-yl)-2-(trifluoromethyl)phenyl)-4-oxo-1,4-dihydroquinoline-3-carboxamide] |
| > 5.00 | ++ (between 25% to 100%) | Cc1cccc2[nH]cc(C(=O)Nc3ccc(N4CCC[C@H]4C)cc3C(F)(F)F)c(=O)c12 [Compound 697, (R)-5-methyl-N-(4-(2-methylpyrrolidin-1-yl)-2-(trifluoromethyl)phenyl)-4-oxo-1,4-dihydroquinoline-3-carboxamide] |
